Series [1] has as its target T1, Mdm4:p53 (Homo sapiens, UniProt O15151).
T1 construct: the p53 (1–70) and Mdm4 (1–112) PPI was then cloned and fused to the FP and ASH tags
T1 sequence (O15151 1-112): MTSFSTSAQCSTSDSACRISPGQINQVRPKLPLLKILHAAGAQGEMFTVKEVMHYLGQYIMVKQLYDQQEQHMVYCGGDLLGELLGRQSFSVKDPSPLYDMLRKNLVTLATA
As to the kind of experiment: Bimodal FLUOPPI Mdm4:p53 PPI assay (pre-mixed stably transfected CHO-K1 cells, high-content imaging). Type of series: cell-based. The settings on record: bimodal system; both treatment time points.
Description: Separate CHO-K1 lines stably expressing either Ash-p53:AG-Mdm2 or Ash-p53:MR-Mdm4 Fluoppi PPI pairs were established and maintained independently. To enable bimodal measurement both cell lines were pre-mixed in equal proportions and then used to seed 96 well plates for compound analysis. […] Plates were incubated overnight and cells were treated with PPI modulating drugs. […] Cells were also processed using a nuclear morphology filter. […] A minimum number of 500 foci were used to determine this value. Dose curves for each compound were then derived and used to calculate a corresponding IC50 value.
Two stable cell lines, 1A7-1 and 1B7-11 were mixed equally and seeded into poly-D-lysine black-wall 96-well plates (Corning) at a density of 20,000 cells/well and incubated for 24 hours at 37 °C in a 5% CO2 atmosphere. […] Green (AG), red (MR) and blue (Hoechst33342) or far-red (Draq5) fluorescence images were used to monitor p53-MDM2, p53-MDM4 and nuclei, respectively. […] To remove dead cells from analysis, only cells with a “nuclei roundness” score of more than 0.75 were counted. FLUOPPI values were calculated by dividing the total green or red fluorescence intensity of puncta by the number of AG-positive nuclei or MR-positive nuclei, respectively. […]

The target in series [2] is T2, Mdm4:p53 (Homo sapiens, UniProt O15151).
T2 sequence (O15151 1-490): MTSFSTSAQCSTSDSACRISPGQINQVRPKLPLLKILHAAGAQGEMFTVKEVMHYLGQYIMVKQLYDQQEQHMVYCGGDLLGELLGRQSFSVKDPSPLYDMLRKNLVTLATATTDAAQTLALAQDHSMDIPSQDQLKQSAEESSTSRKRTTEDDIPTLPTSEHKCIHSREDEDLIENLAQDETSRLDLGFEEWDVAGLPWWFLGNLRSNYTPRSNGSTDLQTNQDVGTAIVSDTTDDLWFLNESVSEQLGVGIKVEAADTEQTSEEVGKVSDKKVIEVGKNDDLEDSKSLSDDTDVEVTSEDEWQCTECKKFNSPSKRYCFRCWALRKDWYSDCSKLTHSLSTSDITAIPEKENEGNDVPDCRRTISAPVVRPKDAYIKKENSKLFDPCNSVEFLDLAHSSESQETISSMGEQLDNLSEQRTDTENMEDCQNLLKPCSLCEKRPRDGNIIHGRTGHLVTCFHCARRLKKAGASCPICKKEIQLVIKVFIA
As to the kind of experiment: NanoBIT Mdm4:p53 PPI assay (transiently transfected CHO-K1 cells). Type of series: cell-based. The conditions noted are these: NanoBIT Mdm4:p53 (IC50, µM), small molecules, 10% (v/v) FCS.
Description: When LgBiT and SmBiT are optimally fused to two interacting proteins, in this case full-length Mdm2 and full-length p53, they will be brought sufficiently close to each other that they will reform the active luciferase and generate a luminescence signal.
For transient transfection experiments, 24 hours prior to transfection CHO cells were seeded at a cell density of 300,000 or 1200,000 cells respectively per well of a 6 well plate (ThermoFisher Scientific). […] After a 24 hour incubation, medium was removed and cells were washed with PBS saline. Transfected CHO-1 cells were trypsinised and re-suspended in Opti-MEM media with 0% FCS. […] 25 μl of a 20-fold dilution of Nano-Glo live cell substrate (Promega) in Nano-Glo dilution buffer (PROMEGA) was added to each well and the plate shaken for 1 min at 22 °C and luminescence assessed after additional 50 minutes as described previously[43]. All luminescence assay were carried out in triplicate and luciferase activity for each well was measured by Envision Multilabel plate reader (PerkinElmer). […]
Curve-fitting was carried out using Prism 4.0 (GraphPad). a was always constrained to the experimental value determined using the 1% DMSO (v/v) experimental control. After curve fitting the value determined for d was then verified to be in close agreement with the plateau of the titration.

Series [3] concerns CHO-K1 cells. As to the kind of experiment: LDH release assay (CytoTox). The conditions noted are these: Cricetulus griseus. Type of series: cell-based, Chinese hamster.
The test system of the next series is p53:Mdm2 interaction. The conditions noted are these: read-out: IC50, fluorescence polarization assay; cited from earlier work.
A further series has as its target T3, ASH-p53:AG-Mdm2 (Homo sapiens, UniProt Q00987).
T3 construct: all eight possible combinations of p53 (1–70) and Mdm2 (1–119) were fused
As to the kind of experiment: Reversibility of FLUOPPI foci, transiently transfected ASH-p53:AG-Mdm2 CHO-K1 cells. The format is cell-based.

The test system of series [4] is CHO-K1 cells.
Series [5] has as its system CHO-K1 cells. As to the kind of experiment: cells. The settings on record: Cricetulus griseus, read-out: Viability (IC50, µM).
Setting [6] is: CHO-K1, 1 h, read-out: LDH Release (EC50, µM).

Molecules are shown by their SMILES. Entries after “also recorded” stand apart in the source; their conditions may differ. Like-named read-outs stand apart in the source and are kept apart here. Bounds are passed on as bounds.

T3 sequence (Q00987 1-119, looked up): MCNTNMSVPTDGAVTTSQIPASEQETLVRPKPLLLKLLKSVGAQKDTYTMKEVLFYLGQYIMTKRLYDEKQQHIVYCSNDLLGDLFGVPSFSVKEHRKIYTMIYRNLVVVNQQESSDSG
Description for ASH-p53:AG-Mdm2: All 8 possible interactions pairs for the Mdm2:p53 PPI were then co-expressed in CHO-K1 cells and then analysed for foci formation 24 hours post-transfection (Fig. 1B). To eliminate the possibility of non-specific interactions between the expression constructs giving rise to foci formation, negative control experiments were performed between the AG fluorescent tagged constructs and the non-fluorescent oligomerizing tag (ASH) by itself (Fig. 1C).
24 hours prior to transfection CHO-K1 cells were seeded at a cell density of 800,000 cells respectively per well of a 6 well plate (ThermoFisher Scientific). […] After a 24 hour incubation, medium was removed and cells were washed with PBS saline. Transfected CHO-K1 cells were trypsinised and re-suspended in Nutrient Mixture F-12 Ham (Ham's F-12) media (Sigma-Aldrich) supplemented with 10% FCS. Cells were then spun down at 1000 rpm for 5 minutes at room temperature. Supernatant was then discarded and cells re-suspended to a density of 200,000 cells per ml in Ham's F-12 media supplemented with 10% FCS. 100 μl of the resulting cell suspension was added to the wells of a black clear bottom 96-well plate. After a 24 hours incubation, the cell medium was replaced with fresh Ham's F-12 medium containing the indicated concentration of small molecule or stapled peptide and the stated FCS concentration. Final concentration of DMSO was 1% (v/v).

Regarding `CC(C)(C)C[C@@H]1N[C@@H](C(=O)N[C@H]2CC[C@H](O)CC2)[C@H](c2cccc(Cl)c2F)[C@]12C(=O)Nc1cc(Cl)ccc12` [MI-773], the “inhibition of the p53:Mdm4 FLUOPPI PPI (in words)” value against Mdm4:p53 [1] is given as “negligible effect”. The IC50 on Mdm4:p53 [2] (1 hour treatment) is 10.2 ± 1.6 µM; against Mdm4:p53 [2] (24 hour treatment), 2.7 µM; in the series on p53:Mdm2 interaction, 0.00088 µM. The EC50 with CHO-K1 cells [3] (setting [6]) came to 30 ± 6.2 µM; in the series on CHO-K1 cells [3] (CHO-K1, 4 h, read-out: Normalized LDH release, value printed beside curve) it was 30.6 ± 6.2 µM.
For `COc1ccc(C2=N[C@@H](c3ccc(Cl)cc3)[C@@H](c3ccc(Cl)cc3)N2C(=O)N2CCNC(=O)C2)c(OC(C)C)c1` [Nutlin 3A], in the series with CHO-K1 cells [3] (setting [6]), the EC50 stood at 35.7 ± 6.2 µM. Also, the “disruption of Mdm2:p53 fluorescent foci (in words)” value at ASH-p53:AG-Mdm2 is “disrupted; also recorded: disruption of the fluorescent foci”. Also, the “effect on cellular viability (in words)” value with CHO-K1 cells [4] is on record as “significant decreases in cellular viability”. In addition, the “concentration with significant effects on cellular viability (arbitrarily defined as >25%)” value in the series with CHO-K1 cells [4] (Chinese hamster) is reported as > 25 µM. Further, the IC50 in the series on CHO-K1 cells [5] (CHO-K1, 1 h) was 34 ± 7 µM; with CHO-K1 cells [5] (CHO-K1, 24 h), 28.5 µM.
